Test results published in US6479435B1, “Diaryl ethers and processes for their preparation and herbicidal and desiccant compositions containing them” (ISK Americas Incorporated, priority 1997, dated 2002).

Key:
Type in all cases: in vivo
[1] = tested on: common ragweed (Ambrosia artemisiifolia L., AMBEL); assay: Pre-emerge greenhouse herbicide test, phytotoxicity rating; conditions: 14 days after application, rating scale 0-100
In short: (§1)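 Visual 0–100 injury rating (100 = all plants dead) taken 14 days after treatment. Rates of 125–1000 g ai/ha in acetone, 187 l/ha, were sprayed onto soil one day post-sowing; pots were surface-watered to incorporate, then bottom-watered.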

[2] = tested on: sicklepod (Cassia obtusifolia, CASOB); assay: as above; conditions: 14 days after application, rating scale 0-100
In short: as §1

[3] = tested on: barnyardgrass (Echinochloa crusgalli, ECHCG); assay: as above; conditions: 14 days after application, rating scale 0-100
In short: as §1

[4] = tested on: ivyleaf morningglory (Ipomoea hederacea, IPOHE); assay: as above; conditions: 14 days after application, rating scale 0-100
In short: as §1

[5] = tested on: redroot pigweed (Amaranthus retroflexus, AMARE); assay: as above; conditions: 14 days after application, rating scale 0-100
In short: as §1

[6] = tested on: large crabgrass (Digitaria sanguinalis, DIGSA); assay: as above; conditions: 14 days after application, rating scale 0-100
In short: as §1

[7] = tested on: velvetleaf (Abutilon theophrasti, ABUTH); assay: as above; conditions: 14 days after application, rating scale 0-100
In short: as §1

[8] = tested on: lambsquarters (Chenopodium album, CHEAL); assay: as above; conditions: 14 days after application, rating scale 0-100
In short: as §1

[9] = tested on: Johnsongrass (Sorghum halepense, SORHA); assay: as above; conditions: 14 days after application, rating scale 0-100
In short: as §1

[10] = tested on: green foxtail (Setaria viridis, SETVI); assay: as above; conditions: 14 days after application, rating scale 0-100
In short: as §1

[11] = tested on: soybean (Glycine max L., var. Pella 86, SOY); assay: Post-emerge greenhouse test, crop damage rating; design: key to crop damage rating SOY: 0-100 scale: 0 = no damage, 100 = complete death of all plants; conditions: 14 days after application, scale 0-100
In short: (§2)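 Scores use a 0 (no damage) to 100 (complete kill) scale, taken 14 days after a foliar spray. Acetone solutions with 0.25% v/v non-ionic surfactant were applied by track sprayer at 187 l/ha and 63-1000 g ai/ha to bottom-watered 2-3 leaf plants.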

[12] = tested on: field corn (Zea mays L., var. Dekalb 535, CORN); assay: Pre-emerge greenhouse test, crop damage rating; conditions: 14 days after application, rating scale 0-100
In short: as §1

[13] = tested on: upland rice (Oryza sp., var.Tebonnet, RICE); assay: Pre-emerge greenhouse test, crop damage rating; conditions: 14 days after application, rating scale 0-100
In short: as §1

[14] = tested on: common ragweed (Ambrosia artemisiifolia L., AMBEL); assay: Post-emerge greenhouse herbicide test, phytotoxicity rating; conditions: 14 days after application, scale 0-100
In short: as §2

[15] = tested on: sicklepod (Cassia obtusifolia, CASOB); assay: as above; conditions: 14 days after application, scale 0-100
In short: as §2

[16] = tested on: barnyardgrass (Echinochloa crusgalli, ECHCG); assay: as above; conditions: 14 days after application, scale 0-100
In short: as §2

[17] = tested on: ivyleaf morningglory (Ipomoea hederacea, IPOHE); assay: as above; conditions: 14 days after application, scale 0-100
In short: as §2

[18] = tested on: redroot pigweed (Amaranthus retroflexus, AMARE); assay: as above; conditions: 14 days after application, scale 0-100
In short: as §2

[19] = tested on: large crabgrass (Digitaria sanguinalis, DIGSA); assay: as above; conditions: 14 days after application, scale 0-100
In short: as §2

[20] = tested on: velvetleaf (Abutilon theophrasti, ABUTH); assay: as above; conditions: 14 days after application, scale 0-100
In short: as §2

[21] = tested on: lambsquarters (Chenopodium album, CHEAL); assay: as above; conditions: 14 days after application, scale 0-100
In short: as §2

[22] = tested on: Johnsongrass (Sorghum halepense, SORHA); assay: as above; conditions: 14 days after application, scale 0-100
In short: as §2

[23] = tested on: green foxtail (Setaria viridis, SETVI); assay: as above; conditions: 14 days after application, scale 0-100
In short: as §2

[24] = tested on: field corn (Zea mays L., var. Dekalb 535, CORN); assay: Post-emerge greenhouse test, crop damage rating; conditions: 14 days after application, scale 0-100
In short: as §2

[25] = tested on: upland rice (Oryza sp., var.Tebonnet, RICE); assay: Post-emerge greenhouse test, crop damage rating; conditions: 14 days after application, scale 0-100
In short: as §2

[26] = tested on: soybean (Glycine max L., var. Pella 86, SOY); assay: Pre-emerge greenhouse test, crop damage rating; design: key to SOY crop damage rating: 0 = no damage, 100 = complete death of all plants; conditions: 14 days after application, rating scale 0-100
In short: as §1

N#Cc1ccc(Oc2cc(-n3c(=O)n4n(c3=S)CCCC4)c(F)cc2Cl)nc1 [Compound 8-22]
95: crop damage rating SOY ([11]; rate 500 g ai/ha) | phytotoxicity rating AMARE ([18]; rate 63 g ai/ha)
30: ECHCG phytotoxicity rating ([3]; Rate 500 g al/ha) | phytotoxicity rating ECHCG ([16]; rate 500 g ai/ha) | phytotoxicity rating DIGSA ([19]; rate 500 g ai/ha) | phytotoxicity rating SORHA ([22]; rate 500 g ai/ha)
50: phytotoxicity rating CASOB ([15]; rate 63 g ai/ha) | SOY crop damage rating ([26]; Rate 125 g al/ha)
75: phytotoxicity rating SETVI ([23]; rate 500 g ai/ha)
20: CASOB phytotoxicity rating ([2]; Rate 125 g al/ha) | DIGSA phytotoxicity rating ([6]; Rate 125 g al/ha) | SORHA phytotoxicity rating ([9]; Rate 500 g al/ha) | phytotoxicity rating SETVI ([23]; rate 63 g ai/ha)
100: AMBEL phytotoxicity rating ([1]; Rate 125 g al/ha) | AMBEL phytotoxicity rating ([1]; Rate 500 g al/ha) | AMARE phytotoxicity rating ([5]; Rate 125 g al/ha) | AMARE phytotoxicity rating ([5]; Rate 500 g al/ha) | ABUTH phytotoxicity rating ([7]; Rate 125 g al/ha) | ABUTH phytotoxicity rating ([7]; Rate 500 g al/ha) | CHEAL phytotoxicity rating ([8]; Rate 125 g al/ha) | CHEAL phytotoxicity rating ([8]; Rate 500 g al/ha) | SETVI phytotoxicity rating ([10]; Rate 500 g al/ha) | phytotoxicity rating AMBEL ([14]; rate 500 g ai/ha) | phytotoxicity rating IPOHE ([17]; rate 500 g ai/ha) | phytotoxicity rating AMARE ([18]; rate 500 g ai/ha) | phytotoxicity rating ABUTH ([20]; rate 63 g ai/ha) | phytotoxicity rating ABUTH ([20]; rate 500 g ai/ha) | phytotoxicity rating CHEAL ([21]; rate 63 g ai/ha) | phytotoxicity rating CHEAL ([21]; rate 500 g ai/ha)
53: crop damage rating CORN ([24]; rate 63 g ai/ha)
90: CASOB phytotoxicity rating ([2]; Rate 500 g al/ha) | DIGSA phytotoxicity rating ([6]; Rate 500 g al/ha)
40: IPOHE phytotoxicity rating ([4]; Rate 125 g al/ha) | SETVI phytotoxicity rating ([10]; Rate 125 g al/ha) | RICE crop damage rating ([13]; Rate 500 g al/ha)
10: IPOHE phytotoxicity rating ([4]; Rate 500 g al/ha) | phytotoxicity rating ECHCG ([16]; rate 63 g ai/ha) | crop damage rating RICE ([25]; rate 500 g ai/ha)
70: SOY crop damage rating ([26]; Rate 500 g al/ha)
0: ECHCG phytotoxicity rating ([3]; Rate 125 g al/ha) | SORHA phytotoxicity rating ([9]; Rate 125 g al/ha) | CORN crop damage rating ([12]; Rate 125 g al/ha) | RICE crop damage rating ([13]; Rate 125 g al/ha) | phytotoxicity rating DIGSA ([19]; rate 63 g ai/ha) | phytotoxicity rating SORHA ([22]; rate 63 g ai/ha)
15: crop damage rating CORN ([24]; rate 500 g ai/ha)
5: crop damage rating RICE ([25]; rate 63 g ai/ha)
80: phytotoxicity rating AMBEL ([14]; rate 63 g ai/ha) | phytotoxicity rating CASOB ([15]; rate 500 g ai/ha) | phytotoxicity rating IPOHE ([17]; rate 63 g ai/ha)
65: crop damage rating SOY ([11]; rate 63 g ai/ha)
60: CORN crop damage rating ([12]; Rate 500 g al/ha)
